In ChEMBL document CHEMBL1201862, “PubChem BioAssay data set” (2004):
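Cultured in 96-well plates, cells were exposed to test compound for 48 hours across five concentrations. Abbreviation: GI50, concentration required for 50% inhibition of growth.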 Calls of active or inactive are those of the source. No stated cut-off is given here; in the data, active = GI50 up to about 1.1 µM and inactive = higher.

Experiments:
Assay in all cases: inhibition of tumour cell growth, NCI panel, 48 h
[1] = tested on: ACHN
[2] = tested on: DU-145
[3] = tested on: HCT-116
[4] = tested on: HCT-15
[5] = tested on: HOP-92
[6] = tested on: IGROV-1
[7] = tested on: K562
[8] = tested on: MDA-MB-435
[9] = tested on: MDA-N
[10] = tested on: Malme-3M
[11] = tested on: OVCAR-3
[12] = tested on: OVCAR-5
[13] = tested on: OVCAR-8
[14] = tested on: PC-3
[15] = tested on: RPMI-8226
[16] = tested on: RXF 393
[17] = tested on: SF-539
[18] = tested on: SK-MEL-2
[19] = tested on: SNB-19
[20] = tested on: TK-10

Row | SMILES | GI50 [1] | GI50 [2] | GI50 [3] | GI50 [4] [µM] | GI50 [5] | GI50 [6] | GI50 [7] | GI50 [8] | GI50 [9] | GI50 [10] | GI50 [11] | GI50 [12] | GI50 [13] | GI50 [14] | GI50 [15] | GI50 [16] | GI50 [17] | GI50 [18] | GI50 [19] | GI50 [20]
1 | Clc1ccc(-c2nn3c(COc4cccc(OCc5nnc6sc(-c7ccc(Cl)cc7)nn56)c4)nnc3s2)cc1 | 22.4 µM (inactive) | 25.4 µM (inactive) | 18.6 µM (inactive) | 27.5 | 30.1 µM (inactive) | 26.8 µM (inactive) | 24.4 µM (inactive) | 19.4 µM (inactive) | 15.7 µM (inactive) | 19.2 µM (inactive) | 6.78 µM (inactive) | 28.6 µM (inactive) | 28.9 µM (inactive) | 33.1 µM (inactive) | 22.1 µM (inactive) | 16.1 µM (inactive) | 26.9 µM (inactive) | 58.5 µM (inactive) | 24.6 µM (inactive) | 36.8 µM (inactive)
2 | Cc1ccc(NC(=S)C#N)c(C)c1 | > 100 µM (inactive) | > 100 µM (inactive) | > 78.7 µM (inactive) | > 92.7 | 74.8 µM (inactive) | > 63 µM (inactive) | 38.4 µM (inactive) | 56 µM (inactive) | > 82.2 µM (inactive) | 44.2 µM (inactive) | 37.7 µM (inactive) | > 100 µM (inactive) | > 100 µM (inactive) | > 100 µM (inactive) | 21.3 µM (inactive) | > 100 µM (inactive) | > 100 µM (inactive) | > 100 µM (inactive) | > 100 µM (inactive) | > 100 µM (inactive)
3 | CCn1cc(C(=O)O)c(=O)c2cc3c(cc21)S(=O)(=O)CC3 | > 100 µM (inactive) | > 100 µM (inactive) | > 100 µM (inactive) | > 100 | > 100 µM (inactive) | > 100 µM (inactive) | > 100 µM (inactive) | > 100 µM (inactive) | > 100 µM (inactive) | > 100 µM (inactive) | > 100 µM (inactive) | > 100 µM (inactive) | > 100 µM (inactive) | > 100 µM (inactive) | > 100 µM (inactive) | > 100 µM (inactive) | > 100 µM (inactive) | > 100 µM (inactive) | > 100 µM (inactive) | > 100 µM (inactive)
4 | O=C(O)CCCSc1nc2ccccc2s1 | > 100 µM (inactive) | > 100 µM (inactive) | > 100 µM (inactive) | > 100 | > 100 µM (inactive) | > 100 µM (inactive) | > 100 µM (inactive) | > 100 µM (inactive) | > 100 µM (inactive) | > 100 µM (inactive) | > 100 µM (inactive) | > 100 µM (inactive) | > 100 µM (inactive) | > 100 µM (inactive) | > 100 µM (inactive) | > 100 µM (inactive) | > 100 µM (inactive) | > 100 µM (inactive) | > 100 µM (inactive) | > 100 µM (inactive)
5 | CC1CNC(c2ccc(COc3ccc(C4=NC(C)CN4)cc3)cc2)=N1 (stereo not given) | > 100 µM (inactive) | > 100 µM (inactive) | 39.1 µM (inactive) | > 100 | > 100 µM (inactive) | > 100 µM (inactive) | 15.5 µM (inactive) | 61 µM (inactive) | 82.2 µM (inactive) | 27.6 µM (inactive) | 34.9 µM (inactive) | > 100 µM (inactive) | 72.6 µM (inactive) | 32.1 µM (inactive) | 29.9 µM (inactive) | 58.6 µM (inactive) | 54.8 µM (inactive) | 18.6 µM (inactive) | 50.1 µM (inactive) | 65.9 µM (inactive)
6 | O=C1CC(Br)c2c(Cl)sc(Cl)c21 (stereo not given) | 12.2 µM (inactive) | 17 µM (inactive) | 4.56 µM (inactive) | 8.07 | 15.1 µM (inactive) | 11.4 µM (inactive) | 2.17 µM (inactive) | 2.39 µM (inactive) | 3.21 µM (inactive) | 12.1 µM (inactive) | 2.38 µM (inactive) | 18 µM (inactive) | 3.1 µM (inactive) | 10.8 µM (inactive) | 1.43 µM (inactive) | 2.39 µM (inactive) | 8.3 µM (inactive) | 15.8 µM (inactive) | 19.3 µM (inactive) | 2.54 µM (inactive)
